In the kinase profiling compilation of Christmann-Franck et al. (2016):

Experiments:
Assay in all cases: KINOMEscan competition binding
Conditions in all cases: compound 10.0 µM
BRAF (human) = BRAF (human) (UniProt P15056)
[1] = system: BRAF (human), P15056 [V600E]
ERN1 (human) = ERN1 (human) (UniProt O75460)
[2] = system: KIT (human), P10721 [A829P]
NEK4 (human) = NEK4 (human) (UniProt P51957)
ICK (human) = ICK (human) (UniProt Q9UPZ9)
SGK110 (human) = SGK110 (human) (UniProt P0C264)
PIP5K1C (human) = PIP5K1C (human) (UniProt O60331)
Chain of PIP5K1C (human) (O60331 whole entry, looked up): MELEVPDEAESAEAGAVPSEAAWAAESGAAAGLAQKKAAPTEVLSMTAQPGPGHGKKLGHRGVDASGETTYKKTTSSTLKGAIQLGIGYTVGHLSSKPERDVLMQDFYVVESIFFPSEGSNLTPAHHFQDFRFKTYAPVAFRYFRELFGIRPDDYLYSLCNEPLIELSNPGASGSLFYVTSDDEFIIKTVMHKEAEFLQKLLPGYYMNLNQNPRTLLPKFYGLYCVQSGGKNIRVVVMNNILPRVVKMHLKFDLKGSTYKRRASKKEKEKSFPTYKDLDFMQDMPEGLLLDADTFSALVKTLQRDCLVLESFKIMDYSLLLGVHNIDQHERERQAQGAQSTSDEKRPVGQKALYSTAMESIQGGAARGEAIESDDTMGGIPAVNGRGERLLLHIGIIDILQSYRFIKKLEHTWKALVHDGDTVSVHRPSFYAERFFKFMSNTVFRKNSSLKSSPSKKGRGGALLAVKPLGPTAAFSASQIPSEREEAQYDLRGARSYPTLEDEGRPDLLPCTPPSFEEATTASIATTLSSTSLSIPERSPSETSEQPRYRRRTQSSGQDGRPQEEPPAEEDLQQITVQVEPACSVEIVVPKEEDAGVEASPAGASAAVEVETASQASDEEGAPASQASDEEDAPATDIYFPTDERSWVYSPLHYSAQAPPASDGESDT

CDKL1 (human) = CDKL1 (human) (UniProt Q00532)
Chain of CDKL1 (human) (Q00532 whole entry, looked up): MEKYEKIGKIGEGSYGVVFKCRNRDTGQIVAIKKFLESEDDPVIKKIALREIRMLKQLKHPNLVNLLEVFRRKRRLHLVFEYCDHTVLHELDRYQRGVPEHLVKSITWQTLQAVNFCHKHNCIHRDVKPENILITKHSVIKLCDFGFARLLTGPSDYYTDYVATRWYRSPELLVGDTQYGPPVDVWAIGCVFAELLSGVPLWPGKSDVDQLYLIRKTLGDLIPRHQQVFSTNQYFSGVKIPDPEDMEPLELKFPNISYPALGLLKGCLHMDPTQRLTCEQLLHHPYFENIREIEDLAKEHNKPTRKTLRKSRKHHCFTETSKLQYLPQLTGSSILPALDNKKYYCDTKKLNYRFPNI

EPHB6 (human) = EPHB6 (human) (UniProt O15197)
Chain of EPHB6 (human) (O15197 whole entry, looked up): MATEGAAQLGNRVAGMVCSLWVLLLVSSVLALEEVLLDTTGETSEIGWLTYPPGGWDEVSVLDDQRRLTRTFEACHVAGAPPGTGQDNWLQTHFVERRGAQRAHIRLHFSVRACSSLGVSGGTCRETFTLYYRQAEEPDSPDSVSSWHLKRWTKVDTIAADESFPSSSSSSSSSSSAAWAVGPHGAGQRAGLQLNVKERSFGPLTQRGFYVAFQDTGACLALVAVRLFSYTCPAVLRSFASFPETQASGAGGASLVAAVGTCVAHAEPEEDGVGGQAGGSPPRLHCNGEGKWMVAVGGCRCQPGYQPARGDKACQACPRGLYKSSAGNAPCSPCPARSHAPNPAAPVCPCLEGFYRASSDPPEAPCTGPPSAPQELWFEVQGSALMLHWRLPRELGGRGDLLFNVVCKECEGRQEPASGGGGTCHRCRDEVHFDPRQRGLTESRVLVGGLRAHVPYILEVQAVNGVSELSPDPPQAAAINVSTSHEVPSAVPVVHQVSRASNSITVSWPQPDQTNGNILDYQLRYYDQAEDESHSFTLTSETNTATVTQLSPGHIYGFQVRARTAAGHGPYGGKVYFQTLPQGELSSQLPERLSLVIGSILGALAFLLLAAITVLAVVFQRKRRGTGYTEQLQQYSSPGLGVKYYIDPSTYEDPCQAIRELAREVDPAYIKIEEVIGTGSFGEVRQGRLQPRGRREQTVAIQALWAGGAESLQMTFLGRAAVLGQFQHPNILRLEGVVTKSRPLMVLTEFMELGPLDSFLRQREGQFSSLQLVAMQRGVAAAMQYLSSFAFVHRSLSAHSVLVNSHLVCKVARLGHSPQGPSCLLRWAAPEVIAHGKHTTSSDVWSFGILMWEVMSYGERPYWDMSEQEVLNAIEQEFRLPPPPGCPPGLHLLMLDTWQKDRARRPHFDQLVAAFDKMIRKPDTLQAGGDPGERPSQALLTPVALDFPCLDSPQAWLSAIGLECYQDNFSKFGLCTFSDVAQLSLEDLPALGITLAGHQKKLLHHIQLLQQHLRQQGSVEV

MAP2K7 (human) = MAP2K7 (human) (UniProt O14733)
[3] = system: MET (human), P08581 [Y1235D]
CDKL5 (human) = CDKL5 (human) (UniProt O76039)
Chain of CDKL5 (human) (O76039 whole entry, looked up): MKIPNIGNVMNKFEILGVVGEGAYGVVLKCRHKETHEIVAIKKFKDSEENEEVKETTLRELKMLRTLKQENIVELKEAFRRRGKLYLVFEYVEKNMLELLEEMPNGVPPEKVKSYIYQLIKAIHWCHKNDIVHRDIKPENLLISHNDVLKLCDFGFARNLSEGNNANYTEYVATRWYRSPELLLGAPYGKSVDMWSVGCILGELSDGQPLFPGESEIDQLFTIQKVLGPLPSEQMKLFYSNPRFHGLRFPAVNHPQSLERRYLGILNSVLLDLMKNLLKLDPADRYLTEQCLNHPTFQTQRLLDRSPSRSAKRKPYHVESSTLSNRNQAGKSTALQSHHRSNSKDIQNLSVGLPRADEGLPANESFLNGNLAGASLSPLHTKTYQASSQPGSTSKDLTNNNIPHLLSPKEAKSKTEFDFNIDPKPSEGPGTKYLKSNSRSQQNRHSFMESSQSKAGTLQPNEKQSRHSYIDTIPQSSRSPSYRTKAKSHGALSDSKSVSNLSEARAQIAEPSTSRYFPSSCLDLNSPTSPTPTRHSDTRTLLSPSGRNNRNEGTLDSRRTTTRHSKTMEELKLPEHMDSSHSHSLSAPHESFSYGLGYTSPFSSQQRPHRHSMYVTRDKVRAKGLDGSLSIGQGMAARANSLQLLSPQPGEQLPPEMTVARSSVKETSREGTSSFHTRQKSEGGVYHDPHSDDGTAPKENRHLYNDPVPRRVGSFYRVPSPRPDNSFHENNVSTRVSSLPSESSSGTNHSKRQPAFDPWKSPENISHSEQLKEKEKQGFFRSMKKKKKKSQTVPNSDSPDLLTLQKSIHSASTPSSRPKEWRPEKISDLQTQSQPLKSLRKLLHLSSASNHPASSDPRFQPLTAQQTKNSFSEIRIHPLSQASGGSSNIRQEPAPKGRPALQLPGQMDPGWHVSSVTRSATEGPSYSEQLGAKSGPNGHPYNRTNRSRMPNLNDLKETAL

OXSR1 (human) = OXSR1 (human) (UniProt O95747)
[4] = system: PIK3CA (human), P42336 [Q546K]
GRK4 (human) = GRK4 (human) (UniProt P32298)
[5] = system: ABL1 (human), P00519 [H396P]

Chain of KIT (human), P10721 [A829P] (P10721 whole entry A829P, looked up): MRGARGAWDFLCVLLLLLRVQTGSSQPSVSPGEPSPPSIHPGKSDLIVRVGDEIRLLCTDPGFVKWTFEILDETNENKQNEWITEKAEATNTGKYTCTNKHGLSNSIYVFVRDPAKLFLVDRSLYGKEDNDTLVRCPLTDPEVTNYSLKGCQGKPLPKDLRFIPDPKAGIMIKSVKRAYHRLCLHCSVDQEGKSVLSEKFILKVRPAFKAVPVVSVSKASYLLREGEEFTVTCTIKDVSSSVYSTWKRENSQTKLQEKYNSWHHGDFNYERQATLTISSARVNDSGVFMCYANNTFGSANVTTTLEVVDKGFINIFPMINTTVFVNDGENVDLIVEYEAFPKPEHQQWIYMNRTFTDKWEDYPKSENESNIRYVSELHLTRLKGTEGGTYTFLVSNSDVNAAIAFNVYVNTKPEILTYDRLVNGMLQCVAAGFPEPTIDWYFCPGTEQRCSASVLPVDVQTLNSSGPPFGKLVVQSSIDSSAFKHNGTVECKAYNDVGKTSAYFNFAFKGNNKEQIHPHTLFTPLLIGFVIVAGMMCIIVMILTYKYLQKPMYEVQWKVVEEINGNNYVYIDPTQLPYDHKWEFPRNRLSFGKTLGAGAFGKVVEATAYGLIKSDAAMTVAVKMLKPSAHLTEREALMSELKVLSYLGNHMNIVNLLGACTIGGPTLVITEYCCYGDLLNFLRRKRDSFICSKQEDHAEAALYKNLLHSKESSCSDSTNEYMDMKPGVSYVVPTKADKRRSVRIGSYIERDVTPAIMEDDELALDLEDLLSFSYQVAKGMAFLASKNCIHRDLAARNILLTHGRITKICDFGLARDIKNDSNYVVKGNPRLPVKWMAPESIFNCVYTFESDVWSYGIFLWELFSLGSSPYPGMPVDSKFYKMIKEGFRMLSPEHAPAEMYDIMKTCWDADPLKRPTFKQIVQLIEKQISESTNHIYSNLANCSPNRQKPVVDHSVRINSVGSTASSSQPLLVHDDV
Chain of NEK4 (human) (P51957 whole entry, looked up): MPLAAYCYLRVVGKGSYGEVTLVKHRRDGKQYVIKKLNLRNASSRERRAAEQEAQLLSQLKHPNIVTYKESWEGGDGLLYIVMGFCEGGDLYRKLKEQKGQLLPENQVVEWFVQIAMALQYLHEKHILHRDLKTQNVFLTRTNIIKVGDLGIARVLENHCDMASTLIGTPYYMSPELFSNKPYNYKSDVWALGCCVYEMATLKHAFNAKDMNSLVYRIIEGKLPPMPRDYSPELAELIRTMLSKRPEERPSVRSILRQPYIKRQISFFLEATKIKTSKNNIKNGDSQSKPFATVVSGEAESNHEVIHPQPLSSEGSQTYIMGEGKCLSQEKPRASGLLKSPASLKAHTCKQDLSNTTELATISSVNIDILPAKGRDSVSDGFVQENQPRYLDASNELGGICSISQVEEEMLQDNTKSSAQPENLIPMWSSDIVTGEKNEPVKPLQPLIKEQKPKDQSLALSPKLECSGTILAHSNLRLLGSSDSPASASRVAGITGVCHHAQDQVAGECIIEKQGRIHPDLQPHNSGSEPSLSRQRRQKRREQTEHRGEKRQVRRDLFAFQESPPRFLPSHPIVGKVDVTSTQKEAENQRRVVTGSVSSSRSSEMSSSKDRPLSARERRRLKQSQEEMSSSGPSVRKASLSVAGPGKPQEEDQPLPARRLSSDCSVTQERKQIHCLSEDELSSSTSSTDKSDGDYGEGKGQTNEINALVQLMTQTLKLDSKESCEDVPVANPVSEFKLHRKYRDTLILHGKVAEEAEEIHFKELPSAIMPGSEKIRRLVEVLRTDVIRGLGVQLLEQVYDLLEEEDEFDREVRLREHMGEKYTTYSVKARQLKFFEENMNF

| kinase still bound, per cent of control (BRAF (human)) [%] | kinase still bound, per cent of control [1] [%] | kinase still bound, per cent of control [5] [%] | Structure (SMILES) | kinase still bound, per cent of control (ERN1 (human)) [%] | kinase still bound, per cent of control [2] [%] | kinase still bound, per cent of control (NEK4 (human)) [%] | kinase still bound, per cent of control (ICK (human)) [%] | kinase still bound, per cent of control (SGK110 (human)) [%] | kinase still bound, per cent of control (PIP5K1C (human)) [%] | kinase still bound, per cent of control (CDKL1 (human)) [%] | kinase still bound, per cent of control (EPHB6 (human)) [%] | kinase still bound, per cent of control (MAP2K7 (human)) [%] | kinase still bound, per cent of control [3] [%] | kinase still bound, per cent of control (CDKL5 (human)) [%] | kinase still bound, per cent of control (OXSR1 (human)) [%] | kinase still bound, per cent of control [4] [%] | kinase still bound, per cent of control (GRK4 (human)) [%] |
| --- | --- | --- | --- | --- | --- | --- | --- | --- | --- | --- | --- | --- | --- | --- | --- | --- | --- |
| 40 | 40 |  | COc1cc(N2CCC(N3CCN(C)CC3)CC2)ccc1Nc1ncc(Cl)c(Nc2ccccc2S(=O)(=O)C(C)C)n1 |  |  |  |  |  |  |  |  |  |  |  |  |  |  |
|  |  |  | CCN1CCN(Cc2ccc(NC(=O)c3ccc(C)c(/C=C/c4cnc(Nc5cc(N6CCNCC6)nc(C)n5)cn4)c3)cc2C(F)(F)F)CC1 | 71 | 33 | 28 | 71 | 100 | 65 | 61 | 1.6 | 30 | 93 | 13 | 76 | 100 | 80 |
|  |  |  | CCOc1cc(N2CCC(N3CCCCC3)CC2)ccc1Nc1nc(Nc2ccccc2S(=O)(=O)C(C)C)c2cn[nH]c2n1 | 92 | 100 | 74 | 89 | 100 | 82 | 100 | 71 | 78 | 100 | 100 | 0.05 | 100 | 92 |
|  |  | 0.7 | CCN1CCN(Cc2ccc(NC(=O)c3ccc(C)c(Oc4ccnc5[nH]ccc45)c3)cc2C(F)(F)F)CC1 |  |  |  |  |  |  |  |  |  |  |  |  |  |  |
